Data on 2 compounds can be found in patent US7009045B2 (priority 2000, dated 2006).

Format in all cases: cell-based
The subject of test [1] is Candida famata wild type and regulatory mutants able to overproduce riboflavin on iron-rich medium. The test can be described thus: Sensitivity after electroporation to 3CdSO4.8H20, Burkholder medium with 0.3 M sucrose (Table 20). On the set-up: key: +++: strong growth; ++: weak growth; +: very weak growth; —: absence of growth. As to the method:
(§1) Next, the toxicity of CdSO4 (0–25 μM) to regulatory mutants 2-5 and 4-48 and the C. famata wild strain was studied in the medium with sucrose (Table 20).
(§2) It was shown that all three strains appeared to be very sensitive to Cd^+2 ions without any differences between regulatory mutants and the wild-type strain.

Test [2] has the same test system. Described as above. On the set-up: key: +++: strong growth; ++: weak growth; —: absence of growth. As to the method:
as §1, §2

Test [3] concerns Candida famata regulatory mutants unable to overproduce riboflavin. Briefly: Sensitivity to monofluoroacetate, Burkholder medium with 0.5% glucose (Table 8). An excerpt:
(§3) In further experiments, the influence of the aconitase inhibitor, 2-monofluoroacetate (MFA), on the growth of C.famata regulatory mutants unable to overproduce riboflavin was studied in media with glucose (0.5%) or glycerol (0.5%) as the carbon sources.

For test [4] the test system is unchanged. The test can be described thus: Sensitivity to monofluoroacetate, Burkholder medium with 0.5% glycerol (Table 7). The note with it: MFA 0.2–0.4%.
From the text: as §3

Consider `O.O.O.O.O.O.O.O.O=S(=O)([O-])[O-].O=S(=O)([O-])[O-].O=S(=O)([O-])[O-].[Cd+2].[Cd+2].[Cd+2]` [CdSO4×8H2O], for which the growth entry in test [1] (#2-5, 15 μM) is reported as “+”; in test [1] (#2-5, 20 μM) it was “+”; in test [1] (#4-48, 15 μM), “+”; in test [1] (#4-48, 20 μM) it was “+”; in test [1] (VKM Y-9, 15 μM), “+”; in test [1] (VKM Y-9, 20 μM) it was “+”. The growth result in test [2] (#2-5, 5 μM) was “++”; in test [2] (#2-5, 10 μM), “++”; in test [2] (#2-5, 25 μM), “—”; in test [2] (#4-48, 5 μM), “++”; in test [2] (#4-48, 10 μM), “++”; in test [2] (#4-48, 25 μM), “—”. For the same compound, the growth entry is “+++” in test [2] (VKM Y-9, 5 μM); “++” in test [2] (VKM Y-9, 10 μM); “—” in test [2] (VKM Y-9, 25 μM).

Regarding `O=C(O)CF` [MFA, 2-monofluoroacetate], the “effect on growth of most regulatory mutants” value in test [3] is on record as “did not inhibit growth”. Further, the “effect on growth of wild type VKM Y-9 and leu2 auxotroph L20105” value in test [4] was “not inhibited at all”.
